A short description of data set [1]: Aerobic dissolution activity, visual observation in open glasses of water. It is filed as physicochemical. More on the design: White grainy deposit / White rhombic froth / Reactivity/floating / Calcium settlements / Meniscus (white): scale not given here. The following applies: for Calcium settlements / Evaporation / Meniscus (white) / Particles dissolved / Reactivity/floating / White grainy deposit / White rhombic froth: open air; for pH: open air water solutions. As to the method:
Calcium cyanamide fines, homogeneous calcium cyanamide granules, heterogeneous calcium cyanamide/urea granules, calcium cyanamide granules, and urea were added to equal amounts of water in separate glasses and observed over time. Table 12 is a summary of those visual observations and highlights the vast differences between the aerobic dissolution properties and the chemical reactions over time of open air water solutions of CaNCN granules (1), CaNCN fines (2), homogeneous CaNCN/urea granules formed by melting together CaNCN fines and urea (3), heterogeneous CaNCN/urea granules with a calcium cyanamide core and a urea shell (4), and urea (5).

Data set [2] relates to corn. Put plainly: Crop yield after cornfield application. It is filed as in vivo. The following applies: nitrogen 160 lbs/acre for ammonia. The source says: Nitrate leaching after cornfield applications of 0.5% and 1% heterogeneous calcium cyanamide core/urea shell granules was also followed.
The subject of data set [3] is Coliform. Put plainly: Coliform numbers in parlor wash manure with 0.2% CaNCN. The following applies: below about 0.2% by weight in manure, within 24-120 hrs. It is filed as cell-based.
The test system of data set [4] is microscopic eelworms (nematodes). Put plainly: Inventor Study, WSU: nematode reduction in vitro. The source says: For comparison, results of some prior art studies using dry CaNCN application, liquid molecular cyanamide applications, and the results of an experiment using dicyandiamide are also included in Table 10.
Data set [5] concerns lettuce seed. Put plainly: Seed emergence in band drenched lettuce and broccoli plots. It is filed as in vivo. The following applies: aqueous composition of calcium cyanamide alone as a drench. On the procedure: Yet another test was conducted on lettuce and broccoli plots. […] The rates expressed relevant to strawberry bands were 8 lbs and 16 lbs of nitrogen per acre. […] However, where the drench was allowed to dry for several days before sprinkling, the lettuce seed emergence was reduced 100%. […]

For data set [6], the system named is weeds. The conditions noted are these: cited from earlier work.
Data set [7] deals with arginine production. The conditions noted are these: cited from earlier work; for % Relative Arginine Increase: published data, CaNO3 as baseline.
For data set [8], the system named is Verticillium. The conditions noted are these: cited from earlier work.
Data set [9] relates to Phytophthora. The following applies: cited from earlier work.
Data set [10] deals with microscopic eelworms (nematodes). The following applies: 600-1200 lbs/acre, not hydrolyzed, Field Soil, dry; cited from earlier work.
For data set [11] the test system is unchanged. The following applies: not hydrolyzed, cited from earlier work.
The conditions of data set [12]: about 25° C.; cited from earlier work.
In data set [13] the test system is Meloidogyne chitwoodi J2 larvae. Put plainly: Meloidogyne chitwoodi J2 larvae killed after application in irrigation water. It is filed as in vivo. An excerpt:
This example was done under consultation with Washington State University. Agricultural plots were identified in Washington State.

The test system of data set [14] is microscopic eelworms (nematodes). The conditions noted are these: 100 lbs/acre, hydrolyzed + urease, In vitro; cited from earlier work.
The subject of data set [15] is microscopic soil eelworms (nematodes). Put plainly: Strawberry bed drip irrigation test against methyl bromide, soil eelworms at 12 inch depth. It is filed as in vivo. The conditions noted are these: methyl bromide in pre-wetted beds. The source says: As a result of the before mentioned strawberry bed weed responses, the 70/30 composition was compared directly with methyl bromide (MB) during the California Strawberry Commission's annual testing for alternatives to the ozone negative pesticide, which is scheduled to be 70% banned by 2003. Our chosen objective was to replace pre-banded “slow release” nitrogen with stabilized urea/calcium cyanamide compositions at a similar cost per acre and see if we could attain reduction of weeds and diseases similar to methyl bromide.
The urea/calcium cyanamide composition was applied to pre-wetted and preformed beds through drip irrigation tubes, typically 2 of which are laid inside of where two rows of berry plants will be planted on the outside bed edges. Applications of 100 lbs/acre were compared where the calcium cyanamide composition was applied over 1 hour and 2 hour periods to vary the depth and width of its distribution.
Soil samples, taken at a depth of 12″ in bed centers, were sent for analysis by the Commission. […] It is assumed that the pre-wetting of soil required for bed shaping, caused restricted movement of the methyl bromide gas through the soil.

Setting [16] is: dry incorporated, 1,000 lbs./acre.
[17] abbreviates: shank injected and tarped, 350 lbs/acre.

Like-named read-outs stand apart in the source and are kept apart here.

For `[Ca+2].[N-]=C=[N-]` [(1)Granules, calcium cyanamide], in data set [1] (1 hour), the Calcium settlements is 0, the Evaporation is reported as 0, the “Meniscus (white)” value is 0 and the Particles dissolved is reported as 0. Further, in [1] (1 hour), the Reactivity/floating was found to be 0, the White grainy deposit is given as 0 and the White rhombic froth is given as 0. In data set [1] (24 hours), the Calcium settlements turned out to be 0, the Evaporation came to 0, the “Meniscus (white)” value is 0 and the Particles dissolved was 2. In data set [1] (24 hours), the Reactivity/floating stood at 2, the White grainy deposit is recorded as 0 and the White rhombic froth came to 0. In [1] (30 days), the Calcium settlements is 1, the Evaporation came to 5, the “Meniscus (white)” value was found to be 1 and the Particles dissolved came to 2. In data set [1] (30 days), the Reactivity/floating came to 4, the White grainy deposit is given as 2 and the White rhombic froth amounted to 0. Further, the “pH” value in data set [1] is “(1)Granules(12)”.

Take `[Ca+2].[N-]=C=[N-]` [(2)Fines, calcium cyanamide]: in data set [1] (1 hour), the Calcium settlements is on record as 0, the Evaporation was found to be 0, the “Meniscus (white)” value turned out to be 0 and the Particles dissolved was 2. Also, in data set [1] (1 hour), the Reactivity/floating is 1, the White grainy deposit came to 0 and the White rhombic froth is recorded as 0. Moreover, in data set [1] (24 hours), the Calcium settlements is given as 10, the Evaporation worked out at 0, the “Meniscus (white)” value was 8 and the Particles dissolved is 7. In [1] (24 hours), the Reactivity/floating is on record as 10, the White grainy deposit is listed as 0 and the White rhombic froth is 0. Besides, in [1] (30 days), the Calcium settlements is recorded as 10, the Evaporation is recorded as 5, the “Meniscus (white)” value was found to be 9 and the Particles dissolved was 8. For the same molecule, in data set [1] (30 days), the Reactivity/floating worked out at 10, the White grainy deposit was 6 and the White rhombic froth stood at 0. Also, the “pH” value in [1] was “(2)Fines(12)”.

As for `N` [Ammonia], the Yield in [2] (Field 1, 120 lbs/acre for granules) came out at 180 bushel/acre; in [2] (Field 2, 120 lbs/acre for granule), 177 bushel/acre.

`[Ca+2].[N-]=C=[N-]` [CaNCN, calcium cyanamide]: the “reductions in coliform bacteria” value in data set [3] was determined as 99.999%. Moreover, the “Nematode Reduction” value in data set [4] (9 lbs/acre in distilled water, hydrolyzed, pH = 12.6, In vitro) is 100%; in data set [4] (29 lbs/acre in tap water, hydrolyzed, pH = 10, In vitro) it was 0%; in data set [10], 0%; in data set [11] (1200-2400 equiv. lbs/acre, Wet pot soil) it was 41-66%; in data set [11] (1200-2400 lbs/acre, Dry), 4-8%; in data set [11] (1200-2400 lbs/acre, Wet) it was 42-54%. The “lettuce seed emergence reductions” value in data set [5] (5 lbs CaNCN N/acre) was found to be 85%; in data set [5] (10 lbs CaNCN N/acre), 100%. In data set [6] (dry surface incorporation of 1000 lbs/acre followed by 0.5 acre inch sprinkler water), the weeds reduced was 95%. The “% Relative Arginine Increase” value in data set [7] is 639%. The “reduction of Verticillium” value in data set [8] (setting [16]) was 8%. Besides, the “reduction of Phytophthora” value in [9] (setting [16]) is 0%.

`O=[N+]([O-])[O-].O=[N+]([O-])[O-].[Ca+2]` [CaNO3-baseline, calcium nitrate]: the “% Relative Arginine Increase” value in data set [7] is recorded as 0%.

With `N#CN=C(N)N` [Dicyan-Diamide, dicyandiamide, reference compound], the “Nematode Reduction” value in data set [4] (102 lbs/acre in distilled water, pH = 8, In vitro) is listed as 0%.

Regarding `N#CN` [H2NCN liquid, molecular cyanamide], the acid dissociation constant result in data set [12] is reported as “about 5.42×10^−11”. In addition, the “stimulation of arginine production relative to urea” value in data set [7] (in plants) was 20 times. Also, the “Nematode Reduction” value in data set [11] (112 lbs/acre, In vitro) is 100%.

For the molecule `[Na+].[OH-]` [NaOH, sodium hydroxide], the “Nematode Reduction” value in [4] (35 lbs/acre in tap water, pH = 10, In vitro) is recorded as 99%. Besides, the “Final pH” value in data set [13] (35 lbs/acre at 1/2 inch depth) was determined as 10.6; in data set [13] (70 lbs/acre at 1/2 inch depth) it was 11.4; in data set [13] (105 lbs/acre at 1/2 inch depth) it was 11.7. Also, the figures for the “J2 nema - % killed” value in data set [13] (35 lbs/acre at 1/2 inch depth), in [13] (70 lbs/acre at 1/2 inch depth) and in data set [13] (105 lbs/acre at 1/2 inch depth) were 98.6%, 100% and 100%, respectively.

Take `NC(N)=O` [Urea, urea, reference compound]: the “Nematode Reduction” value in [14] is given as 100%. Besides, the “% Relative Arginine Increase” value in data set [7] is given as 69%. Further, in [1] (1 hour), the Calcium settlements is 0, the Evaporation is 0, the “Meniscus (white)” value turned out to be 0 and the Particles dissolved is given as 0. Further, in data set [1] (1 hour), the Reactivity/floating is reported as 0, the White grainy deposit stood at 0 and the White rhombic froth turned out to be 0. In [1] (24 hours), the Calcium settlements is on record as 0, the Evaporation worked out at 0, the “Meniscus (white)” value stood at 0 and the Particles dissolved is 9. In [1] (24 hours), the Reactivity/floating is 0, the White grainy deposit is on record as 0 and the White rhombic froth is reported as 0. Moreover, in data set [1] (30 days), the Calcium settlements was 0, the Evaporation is 4, the “Meniscus (white)” value is listed as 0 and the Particles dissolved is listed as 10. In [1] (30 days), the Reactivity/floating worked out at 0, the White grainy deposit was 0 and the White rhombic froth is reported as 0. In addition, the “pH” value in data set [1] was “(5)Urea(8)”.

For the molecule `CBr` [methyl bromide, reference compound], in [15], the “reduction of microscopic soil eelworms (nematodes)” value is listed as “completely ineffective”. Moreover, the weeds reduced in [6] (shank injected followed by tarping, 350 lbs/acre) is given as 85%. For the same molecule, the “reduction of Verticillium” value in [8] (setting [17]) is 73%. Further, the “reduction of Phytophthora” value in data set [9] (setting [17]) is 100%.

The values are drawn from patent US7785388B2, “Method for producing stabilized nitrogen compositions” (priority 1999, dated 2010).
